Results published in patent US20250250230A1, “HETEROCYCLIC COMPOUND” (TAKEDA PHARMACEUTICAL COMPANY LIMITED, priority 2022, published 2025).

What follows are compounds tested against T1, human orexin type 2 receptor (Homo sapiens, UniProt O43614) (assay: Measurement of orexin type 2 receptor agonist activity (calcium fluorescence, Fluo-4 AM, FDSS)). Conditions: test compound 3 μM; CHO cells expressing human OX2 receptor; DMSO = 0%, orexin A (human) = 100%.
T1 construct: expressed in transfected cells
T1 sequence (O43614 1-444): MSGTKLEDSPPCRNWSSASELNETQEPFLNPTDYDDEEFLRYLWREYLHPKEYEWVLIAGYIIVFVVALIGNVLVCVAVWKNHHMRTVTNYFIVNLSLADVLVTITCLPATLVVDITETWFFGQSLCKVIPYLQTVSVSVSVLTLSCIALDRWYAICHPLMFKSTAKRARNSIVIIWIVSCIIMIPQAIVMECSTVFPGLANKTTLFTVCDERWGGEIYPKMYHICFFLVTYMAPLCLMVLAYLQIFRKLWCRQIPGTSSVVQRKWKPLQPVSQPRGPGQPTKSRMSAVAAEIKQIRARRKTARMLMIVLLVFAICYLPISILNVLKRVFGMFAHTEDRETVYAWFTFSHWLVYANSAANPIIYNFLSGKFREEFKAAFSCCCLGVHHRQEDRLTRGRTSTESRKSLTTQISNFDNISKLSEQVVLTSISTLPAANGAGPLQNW
Type: cell-based
Outline: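 Agonist response scaled between vehicle (0%) and human orexin A at 10 nM final (100%), from 2-min kinetic Fluo-4 fluorescence reads. Stable hOX2R CHO-K1 clone, dye-loaded in HBSS/20 mM HEPES/0.1% BSA with 1.25 mM probenecid before compound addition.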

| OX2R agonist activity (3 μM, %) [%] | SMILES |
| --- | --- |
| 89 | CS(=O)(=O)NC1CCCN(C(=O)C2CC2c2ccccc2-c2cccc(F)c2F)C1 (racemic) [Example 67, a mixture of rac-N-{(3R)-1-[(1R,2R)-2-(2′,3′-difluoro[1,1′-biphenyl]-2-yl)cyclopropane-1-carbonyl]piperidin-3-yl}methanesulfonamide and rac-N-{(3S)-1-[(1R,2R)-2-(2′,3′-difluoro[1,1′-biphenyl]-2-yl)cyclopropane-1-carbonyl]piperidin-3-yl}methanesulfonamide] |
| 85 | CS(=O)(=O)NC1CCCN(C(=O)C2CC2c2ccccc2-c2ccc(F)cc2F)C1 (racemic) [Example 68, a mixture of rac-N-{(3R)-1-[(1R,2R)-2-(2′,4′-difluoro[1,1′-biphenyl]-2-yl)cyclopropane-1-carbonyl]piperidin-3-yl}methanesulfonamide and rac-N-{(3S)-1-[(1R,2R)-2-(2′,4′-difluoro[1,1′-biphenyl]-2-yl)cyclopropane-1-carbonyl]piperidin-3-yl}methanesulfonamide] |
| 81 | CS(=O)(=O)NC1CCCN(C(=O)C2CC2c2ccccc2-c2ccccc2F)C1 (racemic) [Example 72, a mixture of rac-N-{(3R)-1-[(1R,2R)-2-(2′-fluoro[1,1′-biphenyl]-2-yl)cyclopropane-1-carbonyl]piperidin-3-yl}methanesulfonamide and rac-N-{(3S)-1-[(1R,2R)-2-(2′-fluoro[1,1′-biphenyl]-2-yl)cyclopropane-1-carbonyl]piperidin-3-yl}methanesulfonamide] |
| 84 | CS(=O)(=O)NC1CCCN(C(=O)C2CC2c2ccccc2-c2ccccc2Cl)C1 (racemic) [Example 74, a mixture of rac-N-{(3R)-1-[(1R,2R)-2-(2′-chloro[1,1′-biphenyl]-2-yl)cyclopropane-1-carbonyl]piperidin-3-yl}methanesulfonamide and rac-N-{(3S)-1-[(1R,2R)-2-(2′-chloro[1,1′-biphenyl]-2-yl)cyclopropane-1-carbonyl]piperidin-3-yl}methanesulfonamide] |
| 66 | CS(=O)(=O)NC1CCN(C(=O)C2CC2c2ccccc2-c2cc(F)ccc2F)C1 (racemic) [Example 80, a mixture of rac-N-{(3R)-1-[(1R,2R)-2-(2′,5′-difluoro[1,1′-biphenyl]-2-yl)cyclopropane-1-carbonyl]pyrrolidin-3-yl}methanesulfonamide and rac-N-{(3S)-1-[(1R,2R)-2-(2′,5′-difluoro[1,1′-biphenyl]-2-yl)cyclopropane-1-carbonyl]pyrrolidin-3-yl}methanesulfonamide] |
| 70 | CS(=O)(=O)NC1CCN(C(=O)C2CC2c2ccccc2-c2cccc(F)c2F)C1 (racemic) [Example 81, a mixture of rac-N-{(3R)-1-[(1R,2R)-2-(2′,3′-difluoro[1,1′-biphenyl]-2-yl)cyclopropane-1-carbonyl]pyrrolidin-3-yl}methanesulfonamide and rac-N-{(3S)-1-[(1R,2R)-2-(2′,3′-difluoro[1,1′-biphenyl]-2-yl)cyclopropane-1-carbonyl]pyrrolidin-3-yl}methanesulfonamide] |
| 68 | CS(=O)(=O)NC1CCN(C(=O)C2CC2c2ccccc2-c2ccccc2Cl)C1 (racemic) [Example 85, a mixture of rac-N-{(3R)-1-[(1R,2R)-2-(2′-chloro[1,1′-biphenyl]-2-yl)cyclopropane-1-carbonyl]pyrrolidin-3-yl}methanesulfonamide and rac-N-{(3S)-1-[(1R,2R)-2-(2′-chloro[1,1′-biphenyl]-2-yl)cyclopropane-1-carbonyl]pyrrolidin-3-yl}methanesulfonamide] |
| 81 | CS(=O)(=O)NC1CCCN(C(=O)C2CC2c2ccc(F)cc2-c2ccccc2)CC1 (racemic) [Example 87, a mixture of rac-N-{(4R)-1-[(1R,2R)-2-(5-fluoro[1,1′-biphenyl]-2-yl)cyclopropane-1-carbonyl]azepan-4-yl}methanesulfonamide and rac-N-{(4S)-1-[(1R,2R)-2-(5-fluoro[1,1′-biphenyl]-2-yl)cyclopropane-1-carbonyl]azepan-4-yl}methanesulfonamide] |
| 64 | Cc1cccc(C2CC2C(=O)N2CCCC(NS(C)(=O)=O)C2)c1-c1ccccc1 (racemic) [Example 89, a mixture of rac-N-{(3R)-1-[(1R,2R)-2-(6-methyl[1,1′-biphenyl]-2-yl)cyclopropane-1-carbonyl]piperidin-3-yl}methanesulfonamide and rac-N-{(3S)-1-[(1R,2R)-2-(6-methyl[1,1′-biphenyl]-2-yl)cyclopropane-1-carbonyl]piperidin-3-yl}methanesulfonamide] |
| 61 | CS(=O)(=O)NC1CCCN(C(=O)C2CC2c2c(F)cccc2-c2ccccc2)CC1 (racemic) [Example 95, a mixture of rac-N-{(4R)-1-[(1R,2R)-2-(3-fluoro[1,1′-biphenyl]-2-yl)cyclopropane-1-carbonyl]azepan-4-yl}methanesulfonamide and rac-N-{(4S)-1-[(1R,2R)-2-(3-fluoro[1,1′-biphenyl]-2-yl)cyclopropane-1-carbonyl]azepan-4-yl}methanesulfonamide] |
| 62 | CS(=O)(=O)NC1CCCN(C(=O)C2CC2c2cc(F)ccc2-c2c(F)cccc2F)CC1 (racemic) [Example 96, a mixture of rac-N-{(4R)-1-[(1R,2R)-2-(2′,4,6′-trifluoro[1,1′-biphenyl]-2-yl)cyclopropane-1-carbonyl]azepan-4-yl}methanesulfonamide and rac-N-{(4S)-1-[(1R,2R)-2-(2′,4,6′-trifluoro[1,1′-biphenyl]-2-yl)cyclopropane-1-carbonyl]azepan-4-yl}methanesulfonamide] |
| 56 | CS(=O)(=O)NC1CCCN(C(=O)C2CC2c2cc(F)ccc2-c2c(F)cccc2F)C1 (racemic) [Example 98, a mixture of rac-N-{(3R)-1-[(1R,2R)-2-(2′,4,6′-trifluoro[1,1′-biphenyl]-2-yl)cyclopropane-1-carbonyl]piperidin-3-yl}methanesulfonamide and rac-N-{(3S)-1-[(1R,2R)-2-(2′,4,6′-trifluoro[1,1′-biphenyl]-2-yl)cyclopropane-1-carbonyl]piperidin-3-yl}methanesulfonamide] |
| 60 | CS(=O)(=O)NC1CCCN(C(=O)C2CC2c2cccc(F)c2-c2ccccc2F)C1 (racemic) [Example 105, a mixture of rac-N-{(3R)-1-[(1R,2R)-2-(2′,6-difluoro[1,1′-biphenyl]-2-yl)cyclopropane-1-carbonyl]piperidin-3-yl}methanesulfonamide and rac-N-{(3S)-1-[(1R,2R)-2-(2′,6-difluoro[1,1′-biphenyl]-2-yl)cyclopropane-1-carbonyl]piperidin-3-yl}methanesulfonamide] |
| 63 | CS(=O)(=O)NC1CCCN(C(=O)C2CC2c2cccc(F)c2-c2ccccc2F)CC1 (racemic) [Example 106, a mixture of rac-N-{(4R)-1-[(1R,2R)-2-(2′,6-difluoro[1,1′-biphenyl]-2-yl)cyclopropane-1-carbonyl]azepan-4-yl}methanesulfonamide and rac-N-{(4S)-1-[(1R,2R)-2-(2′,6-difluoro[1,1′-biphenyl]-2-yl)cyclopropane-1-carbonyl]azepan-4-yl}methanesulfonamide] |
| 101 | CCS(=O)(=O)NC1CCCN(C(=O)C2CC2c2ccccc2-c2c(F)cccc2F)CC1 (racemic) [Example 112, a mixture of rac-N-{(4R)-1-[(1R,2R)-2-(2′,6′-difluoro[1,1′-biphenyl]-2-yl)cyclopropane-1-carbonyl]azepan-4-yl}ethanesulfonamide and rac-N-{(4S)-1-[(1R,2R)-2-(2′,6-difluoro[1,1′-biphenyl]-2-yl)cyclopropane-1-carbonyl]azepan-4-yl}ethanesulfonamide] |
| 100 | CN(C)S(=O)(=O)NC1CCN(C(=O)C2CC2c2ccccc2-c2c(F)cccc2F)C1 (racemic) [Example 113, a mixture of rac-N′-{(3R)-1-[(1R,2R)-2-(2′,6′-difluoro[1,1′-biphenyl]-2-yl)cyclopropane-1-carbonyl]pyrrolidin-3-yl}-N,N-dimethylsulfuric diamide and rac-N′-{(3S)-1-[(1R,2R)-2-(2′,6-difluoro[1,1′-biphenyl]-2-yl)cyclopropane-1-carbonyl]pyrrolidin-3-yl}-N,N-dimethylsulfuric diamide] |
| 102 | CN(C)S(=O)(=O)NC1CCCN(C(=O)C2CC2c2ccccc2-c2c(F)cccc2F)CC1 (racemic) [Example 114, a mixture of rac-N′-{(4R)-1-[(1R,2R)-2-(2′,6′-difluoro[1,1′-biphenyl]-2-yl)cyclopropane-1-carbonyl]azepan-4-yl}-N,N-dimethylsulfuric diamide and rac-N′-{(4S)-1-[(1R,2R)-2-(2′,6′-difluoro[1,1′-biphenyl]-2-yl)cyclopropane-1-carbonyl]azepan-4-yl}-N,N-dimethylsulfuric diamide] |
